Source: patent US20230212549A1, “COMPOUNDS COMPRISING A […] LIGAND AND USE THEREOF” (priority 2021, published 2023)

Key:
proteases [1] = molecular target: T1, proteases (Homo sapiens, UniProt P03956); assay type: biochemical; conditions: Matrix metalloproteasel; Reference at 1 μM
T1 construct: BPS Biosciences (ran the screen)

proteases [2] = molecular target: T2, proteases (Homo sapiens, UniProt P08253); assay type: biochemical; conditions: Matrix metalloprotease 2; Reference at 100 nM
T2 construct: BPS Biosciences (ran the screen)

proteases [3] = molecular target: T3, proteases (Homo sapiens, UniProt P14780, Q279R); assay type: biochemical; conditions: 0.1 µM
T3 construct: BPS Biosciences (ran the screen)

[4] = molecular target: T4, FAP-expressing human WI-38 fibroblasts (Homo sapiens, UniProt Q12884); experiment: Competitive FACS binding assay
T4 construct: FAP-expressing human WI-38 fibroblasts (ECACC) were cultured in EMEM; host or cells: WI-38 human fibroblasts
Protocol: Cells were analyzed in an Attune NxT flow cytometer. […] […].
Cells were analyzed in an Attune NxT flow cytometer. […]

Human recombinant FAP [5] = molecular target: T5, Human recombinant FAP (Homo sapiens, UniProt Q12884); experiment: Surface plasmon resonance (Biacore) assay; assay type: binding
HEK-FAP tumor = experiment: SPECT imaging and biodistribution of ^111In-labelled compounds in mice with HEK-FAP tumors; assay type: in vivo; conditions: FIG. 21
Human recombinant FAP [6] = molecular target: T5, Human recombinant FAP; experiment: FRET-based FAP protease activity assay; assay type: biochemical; set-up: purchased R&D systems 3715-SE; conditions: pIC50 Category (Activity), FRET-peptide substrate, 37° C.
[7] = In vivo SPECT/CT imaging of ^111In-3BP-4560 in mice; conditions: ^111In-labelled, FIG. 28
NMDA = conditions: read-out: Ki Ref; reference compound (positive control)
[8] = tested on: metastatic colorectal cancer; conditions: patients with metastatic colorectal cancer, Phase I and II clinical trials; cited from earlier work
proteases [9] = molecular target: T6, proteases (Homo sapiens, UniProt Q9UBX1); assay type: biochemical; conditions: Cathepsin F; Reference at 1 μM
T6 construct: BPS Biosciences (ran the screen)

HEK-FAP tumors = experiment: Efficacy study, HEK-FAP tumor model; conditions: throughout the study, 30 or 60 MBq
Sarc4809 PDX tumors = experiment: Efficacy study, sarcoma Sarc4809 PDX model; conditions: throughout the study, 30 or 60 MBq
proteases [10] = molecular target: T7, proteases (Homo sapiens, UniProt Q6V1X1); assay type: biochemical; conditions: DPP8; Reference at 200 μM
T7 construct: BPS Biosciences (ran the screen)

proteases [11] = molecular target: proteases (Homo sapiens, UniProt Q9UHL4); assay type: biochemical; conditions: DPP7; Reference at 200 μM
proteases [12] = molecular target: T8, proteases (Homo sapiens, UniProt O75604); assay type: biochemical; conditions: Ubiquitin carboxyl-terminal hydrolase 2; Reference at 1 μM
T8 construct: BPS Biosciences (ran the screen)

proteases [13] = molecular target: T9, proteases (Homo sapiens, UniProt P09936); assay type: biochemical; conditions: Ubiquitin carboxy-terminal hydrolase L1; Reference at 100 nM
T9 construct: BPS Biosciences (ran the screen)

proteases [14] = molecular target: T10, proteases (Homo sapiens, UniProt P15374); assay type: biochemical; conditions: Ubiquitin carboxy-terminal hydrolase L3; Reference at 10 nM
T10 construct: BPS Biosciences (ran the screen)

proteases [15] = molecular target: T11, proteases (Homo sapiens, UniProt P21580); assay type: biochemical; conditions: A20; Reference at 1 μM
T11 construct: BPS Biosciences (ran the screen)

proteases [16] = molecular target: T12, proteases (Homo sapiens, UniProt P40818); assay type: biochemical; conditions: Ubiquitin carboxyl-terminal hydrolase 8; Reference at 1 μM
T12 construct: BPS Biosciences (ran the screen)

proteases [17] = molecular target: T13, proteases (Homo sapiens, UniProt P45974); assay type: biochemical; conditions: Ubiquitin carboxyl-terminal hydrolase 5; Reference at 1 μM
T13 construct: BPS Biosciences (ran the screen)

proteases [18] = molecular target: T14, proteases (Homo sapiens, UniProt P54252); assay type: biochemical; conditions: Ataxin3; Reference at 10 μM
T14 construct: BPS Biosciences (ran the screen)

proteases [19] = molecular target: T15, proteases (Homo sapiens, UniProt P54578); assay type: biochemical; conditions: Ubiquitin carboxyl-terminal hydrolase 14; Reference at 100 nM
T15 construct: BPS Biosciences (ran the screen)

proteases [20] = molecular target: T16, proteases (Homo sapiens, UniProt Q14694); assay type: biochemical; conditions: Ubiquitin carboxyl-terminal hydrolase 10; Reference at 1 μM
T16 construct: BPS Biosciences (ran the screen)

proteases [21] = molecular target: T17, proteases (Homo sapiens, UniProt Q8N6M0); assay type: biochemical; conditions: Deubiquitinase OTUD6B; Reference at 1 μM
T17 construct: BPS Biosciences (ran the screen)

proteases [22] = molecular target: T18, proteases (Homo sapiens, UniProt Q93009); assay type: biochemical; conditions: Ubiquitin carboxyl-terminal hydrolase 7; Reference at 1 μM
T18 construct: BPS Biosciences (ran the screen)

KV channel = conditions: read-out: Ki Ref; reference compound (positive control)
proteases [23] = molecular target: T19, proteases (Homo sapiens, UniProt Q12884); assay type: biochemical; conditions: FAP; Reference at 100 nM
T19 construct: BPS Biosciences (ran the screen)

proteases [24] = molecular target: T20, proteases (Hepatitis C virus genotype 1a, UniProt P27958, D1194V); assay type: biochemical; conditions: serine protease NS3 (a.a. 3-181) from Hepatitis C virus genotype 1a (mutant D168V); Reference at 100 nM
T20 construct: BPS Biosciences (ran the screen)

proteases [25] = molecular target: T21, proteases (Hepatitis C virus genotype 1b, UniProt P26663); assay type: biochemical; conditions: serine protease NS3 (a.a. 3-181) from Hepatitis C virus genotype 1b; Reference at 100 nM
T21 construct: BPS Biosciences (ran the screen)

proteases [26] = molecular target: T22, proteases (Hepatitis C virus genotype 1b, UniProt P26663, D1194V); assay type: biochemical; conditions: serine protease NS3 (a.a. 3-181) from Hepatitis C virus genotype 1b (mutant D168V); Reference at 100 nM
T22 construct: BPS Biosciences (ran the screen)

proteases [27] = molecular target: T23, proteases (Hepatitis C virus genotype 1b, UniProt P26663, R1181Q); assay type: biochemical; conditions: serine protease NS3 (a.a. 3-181) from Hepatitis C virus genotype 1b (mutant R155Q); Reference at 1 μM
T23 construct: BPS Biosciences (ran the screen)

proteases [28] = molecular target: T24, proteases (Hepatitis C virus genotype 2a, UniProt Q99IB8); assay type: biochemical; conditions: serine protease NS3 (a.a. 3-181) from Hepatitis C virus genotype 2a; Reference at 100 nM
T24 construct: BPS Biosciences (ran the screen)

alpha 1A (h) = alpha 1A (h) (Homo sapiens, UniProt P35348); conditions: read-out: Ki Ref; reference compound (positive control)
5-HT2B (h) = 5-HT2B (h) (Homo sapiens, UniProt P41595); conditions: read-out: Ki Ref; reference compound (positive control)
proteases [29] = molecular target: T25, proteases (Homo sapiens, UniProt P42574); assay type: biochemical; conditions: Caspase-3; Reference at 100 nM
T25 construct: BPS Biosciences (ran the screen)

proteases [30] = molecular target: T26, proteases (Homo sapiens, UniProt P55210); assay type: biochemical; conditions: Caspase-7; Reference at 1 μM
T26 construct: BPS Biosciences (ran the screen)

T5 sequence (Q12884 whole entry): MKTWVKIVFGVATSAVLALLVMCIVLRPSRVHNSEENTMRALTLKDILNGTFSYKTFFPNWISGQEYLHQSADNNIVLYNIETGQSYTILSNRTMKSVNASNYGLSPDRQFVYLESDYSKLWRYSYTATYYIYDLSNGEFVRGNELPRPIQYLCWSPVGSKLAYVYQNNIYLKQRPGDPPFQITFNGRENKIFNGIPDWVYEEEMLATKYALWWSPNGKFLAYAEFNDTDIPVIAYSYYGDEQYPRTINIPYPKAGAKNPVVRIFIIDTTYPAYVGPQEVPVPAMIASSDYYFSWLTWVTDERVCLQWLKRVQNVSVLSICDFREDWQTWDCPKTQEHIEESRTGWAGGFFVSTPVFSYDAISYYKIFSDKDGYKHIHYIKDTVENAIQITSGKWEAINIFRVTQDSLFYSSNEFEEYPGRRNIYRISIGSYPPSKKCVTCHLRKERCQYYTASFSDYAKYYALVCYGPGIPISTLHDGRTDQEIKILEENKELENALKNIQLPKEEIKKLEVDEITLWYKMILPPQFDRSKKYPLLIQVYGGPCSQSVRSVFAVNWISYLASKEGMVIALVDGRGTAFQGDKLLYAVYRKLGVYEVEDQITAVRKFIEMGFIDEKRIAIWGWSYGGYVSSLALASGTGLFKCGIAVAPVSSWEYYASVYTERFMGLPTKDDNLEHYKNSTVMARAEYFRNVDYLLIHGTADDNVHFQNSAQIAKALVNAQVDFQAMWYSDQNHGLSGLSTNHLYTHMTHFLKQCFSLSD
T4 sequence (Q12884 whole entry): as above
T11 sequence (P21580 whole entry): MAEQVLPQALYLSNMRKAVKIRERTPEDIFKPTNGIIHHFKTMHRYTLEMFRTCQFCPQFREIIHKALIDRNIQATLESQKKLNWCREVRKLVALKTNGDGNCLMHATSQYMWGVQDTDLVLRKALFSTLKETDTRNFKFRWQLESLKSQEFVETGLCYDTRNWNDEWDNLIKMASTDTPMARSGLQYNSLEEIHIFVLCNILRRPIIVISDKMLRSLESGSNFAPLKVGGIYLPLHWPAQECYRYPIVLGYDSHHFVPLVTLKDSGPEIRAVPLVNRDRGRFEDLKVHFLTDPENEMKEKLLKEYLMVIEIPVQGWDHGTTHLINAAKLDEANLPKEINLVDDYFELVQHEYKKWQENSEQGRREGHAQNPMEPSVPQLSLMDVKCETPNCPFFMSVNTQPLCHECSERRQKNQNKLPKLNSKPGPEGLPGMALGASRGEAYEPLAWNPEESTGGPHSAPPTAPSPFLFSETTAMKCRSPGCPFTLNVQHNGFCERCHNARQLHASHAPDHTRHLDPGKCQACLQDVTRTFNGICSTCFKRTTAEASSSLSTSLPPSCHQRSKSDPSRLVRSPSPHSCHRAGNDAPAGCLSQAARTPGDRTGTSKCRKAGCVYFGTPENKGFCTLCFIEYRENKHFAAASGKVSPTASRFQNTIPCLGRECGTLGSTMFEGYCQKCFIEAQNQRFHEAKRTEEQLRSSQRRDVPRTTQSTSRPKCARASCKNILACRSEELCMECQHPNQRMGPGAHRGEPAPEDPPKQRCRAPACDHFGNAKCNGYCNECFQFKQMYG
T17 sequence (Q8N6M0 whole entry): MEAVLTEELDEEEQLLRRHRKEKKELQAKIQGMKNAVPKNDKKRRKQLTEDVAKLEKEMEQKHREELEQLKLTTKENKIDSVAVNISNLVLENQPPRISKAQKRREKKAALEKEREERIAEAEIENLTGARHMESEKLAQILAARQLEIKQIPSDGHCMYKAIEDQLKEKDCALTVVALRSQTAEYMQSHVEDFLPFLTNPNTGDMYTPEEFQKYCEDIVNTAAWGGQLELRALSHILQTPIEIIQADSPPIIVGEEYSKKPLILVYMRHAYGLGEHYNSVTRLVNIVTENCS
T8 sequence (O75604 whole entry): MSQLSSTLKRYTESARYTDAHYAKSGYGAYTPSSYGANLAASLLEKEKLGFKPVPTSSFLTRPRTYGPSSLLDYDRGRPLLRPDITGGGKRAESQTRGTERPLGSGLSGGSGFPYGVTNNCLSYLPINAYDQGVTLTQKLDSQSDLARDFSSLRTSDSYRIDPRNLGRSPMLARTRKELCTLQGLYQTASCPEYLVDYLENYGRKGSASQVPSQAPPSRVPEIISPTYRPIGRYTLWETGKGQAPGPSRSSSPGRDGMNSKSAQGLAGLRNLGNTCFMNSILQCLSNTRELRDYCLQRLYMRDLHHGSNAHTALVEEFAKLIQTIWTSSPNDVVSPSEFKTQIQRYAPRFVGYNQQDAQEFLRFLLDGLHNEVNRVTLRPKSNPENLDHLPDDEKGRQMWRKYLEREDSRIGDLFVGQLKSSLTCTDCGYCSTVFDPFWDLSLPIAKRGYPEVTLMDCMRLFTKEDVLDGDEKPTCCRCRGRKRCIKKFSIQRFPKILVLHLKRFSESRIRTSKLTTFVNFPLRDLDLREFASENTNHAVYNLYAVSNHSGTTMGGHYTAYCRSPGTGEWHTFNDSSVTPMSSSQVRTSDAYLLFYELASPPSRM
T1 sequence (P03956 100-469): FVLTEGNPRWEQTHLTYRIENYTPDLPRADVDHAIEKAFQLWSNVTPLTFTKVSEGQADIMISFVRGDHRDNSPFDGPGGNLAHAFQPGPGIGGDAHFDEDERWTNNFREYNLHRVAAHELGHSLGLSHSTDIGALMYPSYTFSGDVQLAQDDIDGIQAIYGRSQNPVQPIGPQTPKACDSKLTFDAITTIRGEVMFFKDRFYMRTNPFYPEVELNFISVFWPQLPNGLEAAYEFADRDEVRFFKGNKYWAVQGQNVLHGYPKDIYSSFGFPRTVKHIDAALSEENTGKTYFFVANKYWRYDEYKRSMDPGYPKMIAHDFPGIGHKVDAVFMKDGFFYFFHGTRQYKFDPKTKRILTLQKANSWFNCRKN
5-HT2B (h), sequence (P41595 whole entry): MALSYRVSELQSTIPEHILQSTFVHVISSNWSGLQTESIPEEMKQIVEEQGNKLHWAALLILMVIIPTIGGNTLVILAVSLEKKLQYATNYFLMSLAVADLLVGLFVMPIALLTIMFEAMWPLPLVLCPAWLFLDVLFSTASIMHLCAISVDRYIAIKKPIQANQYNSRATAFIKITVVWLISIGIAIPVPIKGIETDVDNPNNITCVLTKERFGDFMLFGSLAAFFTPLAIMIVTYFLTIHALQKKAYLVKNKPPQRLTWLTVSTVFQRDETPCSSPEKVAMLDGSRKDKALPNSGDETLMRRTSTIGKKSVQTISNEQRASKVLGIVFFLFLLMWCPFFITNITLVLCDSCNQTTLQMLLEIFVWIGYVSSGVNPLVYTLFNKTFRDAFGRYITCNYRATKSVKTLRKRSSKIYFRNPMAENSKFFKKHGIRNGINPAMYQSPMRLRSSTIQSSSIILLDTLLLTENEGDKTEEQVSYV
T15 sequence (P54578 whole entry): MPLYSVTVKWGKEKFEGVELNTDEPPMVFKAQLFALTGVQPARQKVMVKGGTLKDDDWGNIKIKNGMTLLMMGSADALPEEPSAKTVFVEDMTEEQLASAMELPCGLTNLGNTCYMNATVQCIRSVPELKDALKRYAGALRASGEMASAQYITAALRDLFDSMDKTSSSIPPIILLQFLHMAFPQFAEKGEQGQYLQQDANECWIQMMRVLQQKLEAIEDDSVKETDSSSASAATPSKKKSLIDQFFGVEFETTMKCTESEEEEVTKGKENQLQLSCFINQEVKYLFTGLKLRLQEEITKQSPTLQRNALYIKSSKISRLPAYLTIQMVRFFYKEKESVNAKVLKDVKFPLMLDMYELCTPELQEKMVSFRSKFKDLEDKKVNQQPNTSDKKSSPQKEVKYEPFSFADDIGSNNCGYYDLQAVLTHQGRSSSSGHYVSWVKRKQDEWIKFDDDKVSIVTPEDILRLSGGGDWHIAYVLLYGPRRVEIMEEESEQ
T9 sequence (P09936 whole entry): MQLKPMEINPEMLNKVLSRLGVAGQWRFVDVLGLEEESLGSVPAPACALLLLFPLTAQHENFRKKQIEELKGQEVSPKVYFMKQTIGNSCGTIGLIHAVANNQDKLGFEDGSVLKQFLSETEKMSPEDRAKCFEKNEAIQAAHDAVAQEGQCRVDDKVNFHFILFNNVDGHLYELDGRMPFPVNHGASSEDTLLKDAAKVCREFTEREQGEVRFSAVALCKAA
T14 sequence (P54252 whole entry): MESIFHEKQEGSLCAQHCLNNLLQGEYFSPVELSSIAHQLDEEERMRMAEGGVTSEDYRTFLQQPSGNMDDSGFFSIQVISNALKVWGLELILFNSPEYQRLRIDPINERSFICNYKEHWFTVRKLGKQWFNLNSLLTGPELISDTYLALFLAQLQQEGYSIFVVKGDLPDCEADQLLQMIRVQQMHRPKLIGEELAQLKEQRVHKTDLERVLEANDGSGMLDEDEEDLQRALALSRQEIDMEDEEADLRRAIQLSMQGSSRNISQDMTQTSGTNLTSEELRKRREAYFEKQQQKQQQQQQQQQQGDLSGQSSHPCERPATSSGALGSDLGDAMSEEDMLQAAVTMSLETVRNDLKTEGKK
T25 sequence (P42574 29-277): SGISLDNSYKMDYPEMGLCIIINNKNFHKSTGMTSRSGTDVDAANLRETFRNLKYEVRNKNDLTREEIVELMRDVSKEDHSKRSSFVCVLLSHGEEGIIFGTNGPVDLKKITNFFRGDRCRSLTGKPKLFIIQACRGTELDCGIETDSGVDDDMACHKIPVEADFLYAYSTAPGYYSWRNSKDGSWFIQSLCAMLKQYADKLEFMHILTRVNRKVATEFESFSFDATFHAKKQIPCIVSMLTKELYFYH
T19 sequence (Q12884 whole entry): as the sequence (Q12884 whole entry) above
T10 sequence (P15374 whole entry): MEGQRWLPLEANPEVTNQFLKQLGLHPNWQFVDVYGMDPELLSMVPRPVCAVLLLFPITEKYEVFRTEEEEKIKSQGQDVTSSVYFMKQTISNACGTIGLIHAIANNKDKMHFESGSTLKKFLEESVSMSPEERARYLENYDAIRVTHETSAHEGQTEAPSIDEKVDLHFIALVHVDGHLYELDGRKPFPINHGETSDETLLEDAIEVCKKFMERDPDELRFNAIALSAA

In the case of `COc1ccc(S(=O)(=O)N(CC(=O)NO)CC(C)C)cc1` [NNGH], the “Percentage inhibition (%)” value (proteases [1]) is reported as 87%, the “Percentage inhibition (%)” value (proteases [2]) is reported as 95% and the “Percentage inhibition (%)” value (proteases [3]) is reported as 92%.
In the case of `CCCCNC(=O)N[C@H]1CSCc2cc(CSCCNC(=O)CN3CCN(CC(=O)O)CCN(CC(=O)O)CCN(CC(=O)O)CC3)cc(c2)CSC[C@@H](C(=O)O)NC(=O)[C@H](Cc2ccccc2)NC(=O)[C@H](CCC(N)=O)NC(=O)[C@H]([C@@H](C)O)NC(=O)[C@@H]2CCCN2C(=O)[C@@H]2CCCN2C1=O` [3BP-3940, nBu-CAyl-[Cys(tMeBn(DOTA-AET))-Pro-Pro-Thr-Gln-Phe-Cys]-OH], the IC50 [4] is reported as < 10 nM, the Kd (Human recombinant FAP [5]) is reported as < 10 nM and the “pKD Category” value (Human recombinant FAP [5]; Biacore assay) is reported as “A (Category A stands for pKD values >8.0)”. The “uptake in healthy tissues (biodistribution)” value (HEK-FAP tumor) was “very low uptake in healthy tissues” and the IC50 (Human recombinant FAP [6]) was < 10 nM.
With `CCCCNC(=O)N[C@H]1CSCc2cc(CSCCNC(=O)CN3CCN(CC(=O)O)CCN(CC(=O)O)CCN(CC(=O)O)CC3)cc(c2)CSC[C@@H](C(N)=O)NC(=O)[C@H](Cc2ccccc2)NC(=O)[C@H](CCC(N)=O)NC(=O)[C@H]([C@@H](C)O)NC(=O)[C@@H]2CCCN2C(=O)[C@@H]2CCCN2C1=O` [3BP-4560, nBu-CAyl-[Cys(tMeBn(DOTA-AET))-Pro-Pro-Thr-Gln-Phe-Cys]-NH2] the IC50 [4] was < 10 nM, the Kd (Human recombinant FAP [5]) was < 10 nM and the “uptake in healthy tissues (biodistribution)” value [7] was “very low uptake in healthy tissues”. The IC50 (Human recombinant FAP [6]) was < 10 nM.
For `O=C(O)[C@@H]1C[C@H](CP(=O)(O)O)CCN1` [CGS 19755], the Ki (NMDA) was 140 nM.
In the case of Sibrotuzumab, the “patients having stable disease” value [8] is given as 2 out of 17.
In the case of Cystatin C, the “Percentage inhibition (%)” value (proteases [9]) is reported as 74%.
With `CCCCCC(=O)N[C@H]1CSCc2cc(CSCCNC(=O)CN3CCN(CC(=O)O)CCN(CC(=O)O)CCN(CC(=O)O)CC3)cc(c2)CSC[C@@H](C(=O)O)NC(=O)[C@H](Cc2ccccc2)NC(=O)[C@H](CCC(N)=O)NC(=O)[C@H]([C@@H](C)O)NC(=O)[C@@H]2CCCN2C(=O)[C@@H]2CCCN2C1=O` [^177Lu-3BP-3554, metal not drawn] the body weight loss (HEK-FAP tumors) was “No treatment-related body weight loss” and the “body weight loss (BWL)” value (Sarc4809 PDX tumors) was “No treatment-related body weight loss”.
With `N#Cc1ccc(NCCNCC(=O)N2N=CCC2C#N)nc1` (centres unmarked) [KR62436] the “Percentage inhibition (%)” value (proteases [10]) was 96% and the “Percentage inhibition (%)” value (proteases [11]) was 83%.
With Ub-Aldehyde the “Percentage inhibition (%)” value (proteases [12]) was 91%, the “Percentage inhibition (%)” value (proteases [13]) was 92% and the “Percentage inhibition (%)” value (proteases [14]) was 95%. For the same molecule, the “Percentage inhibition (%)” value (proteases [15]) was 99%, the “Percentage inhibition (%)” value (proteases [16]) was 73% and the “Percentage inhibition (%)” value (proteases [17]) was 84%. The “Percentage inhibition (%)” value (proteases [18]) was 77%, the “Percentage inhibition (%)” value (proteases [19]) was 96% and the “Percentage inhibition (%)” value (proteases [20]) was 82%. The “Percentage inhibition (%)” value (proteases [21]) was 97% and the “Percentage inhibition (%)” value (proteases [22]) was 95%.
For alpha-dendrotoxin, the Ki (KV channel) was 0.097 nM.
In the case of `N#C[C@@H]1CC(F)(F)CN1C(=O)CNC(=O)c1ccnc2ccccc12` [SP-13786], the “Percentage inhibition (%)” value (proteases [23]) is reported as 100%.
For Denoprevir, the “Percentage inhibition (%)” value (proteases [24]) was 94%, the “Percentage inhibition (%)” value (proteases [25]) was 100% and the “Percentage inhibition (%)” value (proteases [26]) was 99%. The “Percentage inhibition (%)” value (proteases [27]) was 99% and the “Percentage inhibition (%)” value (proteases [28]) was 98%.
In the case of `COc1cccc(OC)c1OCCNCC1COc2ccccc2O1` (centres unmarked) [WB 4101], the Ki (alpha 1A (h)) is reported as 0.24 nM.
In the case of `COc1cc(CC(C)N)c(OC)cc1I` (racemic) [(±)DOI], the Ki (5-HT2B (h)) is reported as 4.2 nM.
For `COC[C@@H]1CCCN1S(=O)(=O)c1ccc2c(c1)C(=O)C(=O)N2` [Caspase 3/7 Inhibitor I], the “Percentage inhibition (%)” value (proteases [29]) was 89% and the “Percentage inhibition (%)” value (proteases [30]) was 92%.
